Laboratory results as given in US10501479B2, “Benzenesulfonyl-asymmetric ureas and medical uses thereof” (HELSINN HEALTHCARE SA, priority 2016, dated 2019).

These molecules were tested against T1, GHSR-1a (HEK293/GHSR1a cell line) (Homo sapiens, UniProt Q92847) (assay: Ghrelin antagonist potency (IC50) with calcium FLIPR assay, ghrelin 10 nM). Details: HEK293/GHSR1a, ghrelin 10 nM, read-out: Activity IC50 (ghrelin antagonist potency).
T1 construct: expressed in transfected cells; host or cells: HEK293/GHSR1a cell line
Type: cell-based
Experimental: Evaluation of Ghrelin Agonist (EC50) and Antagonist Potency (IC50) with Calcium FLIPR Assay:
The intracellular calcium assay was carried out in a 384-well format FLIPR™ (Molecular Device) HEK293/GHSR1a cell line. Cells were seeded 24 hr prior to the experiments at an optimal density per well. Preincubation with selected calcium dye lasted for 30-60 min at room temperature or 37° C. Test compounds, dissolved in DMSO, were added at the appropriate time and incubated for 15 min followed by the addition of ghrelin with FlexStation or FLIPR. Relative fluorescence was monitored by the FLIPR™ Molecular Device. EC50 and IC50 values were estimated from dose-response data using GraphPad Prism software. To check for GHSR-1a agonism, the compound was added at t=20 sec. and the calcium response was followed for 2 minutes. To check for GHSR-1a antagonism, the compound and Ghrelin (10 nM) were added to the cells at t=20 sec. and the calcium response was measured for 2 minutes. The potency of the antagonist was calculated by its ability to reduce the ghrelin response. Dose-response curves were made for relevant antagonists.

T1 sequence (Q92847 whole entry): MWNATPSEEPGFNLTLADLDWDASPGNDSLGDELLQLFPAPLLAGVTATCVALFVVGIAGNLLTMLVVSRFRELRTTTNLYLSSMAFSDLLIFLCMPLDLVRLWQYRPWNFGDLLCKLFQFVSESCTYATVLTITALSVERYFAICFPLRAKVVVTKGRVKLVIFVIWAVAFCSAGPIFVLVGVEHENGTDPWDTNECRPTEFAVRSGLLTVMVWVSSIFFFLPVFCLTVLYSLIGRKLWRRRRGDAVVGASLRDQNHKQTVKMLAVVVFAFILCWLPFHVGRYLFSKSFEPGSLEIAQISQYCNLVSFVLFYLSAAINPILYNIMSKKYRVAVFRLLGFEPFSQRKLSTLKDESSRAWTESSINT

Row | IC50 | SMILES
1 | 23.1 nM | COc1ccc(C(C)NC(=O)Nc2ccc3c(c2)CC(c2ccc4c(c2)CNC4)S3(=O)=O)cc1 (stereo not shown) [H1297, 1-(2-(isoindolin-5-yl)-1,1-dioxido-2,3-dihydrobenzo[b]thiophen-5-yl)-3-(1-(4-methoxyphenyl)ethyl)urea]
2 | 25.1 nM | C[C@H](NC(=O)Nc1ccc2c(c1)C=C(c1ccc3c(c1)CNC3)S2(=O)=O)c1ccccc1 [H1270, (S)-1-(2-(isoindolin-5-yl)-1,1-dioxidobenzo[b]thiophen-5-yl)-3-(1-phenylethyl)urea]

Same assay, conditions: ghrelin antagonist potency, read-out: IC50 (Activity)

Row | SMILES | IC50
3 | COc1ccc(C(C)NC(=O)Nc2ccc(S(=O)(=O)Nc3ccc(CO)cc3)cc2)c2ccccc12 (stereo not shown) [H1145, N-(4-(hydroxymethyl)phenyl)-4-(3-(1-(4-methoxynaphthalen-1-yl)ethyl)ureido) benzenesulfonamide] | ≥ 30000 nM
4 | O=C(NCc1ccccc1)Nc1ccc(S(=O)(=O)Cc2ccc(CO)cc2)cc1 [H1131, 1-benzyl-3-(4-((4-(hydroxymethyl)benzyl)sulfonyl)phenyl)urea] | ≥ 30000 nM
5 | O=C(NCc1cccc(Cl)c1Cl)Nc1ccc(S(=O)(=O)Cc2ccc3c(c2)CCN3)cc1 [H1048, 1-(2,3-dichlorobenzyl)-3-(4-((indolin-5-ylmethyl)sulfonyl)phenyl)urea] | 16800 nM
6 | C[C@H](NC(=O)Nc1ccc(S(=O)(=O)C(C)(C)c2ccc3c(c2)CCNC3)cc1)c1cccc(Cl)c1Cl [H1081, (S)-1-(1-(2,3-dichlorophenyl)ethyl)-3-(4-((2-(1,2,3,4-tetrahydroisoquinolin-6-yl)propan-2-yl)sulfonyl)phenyl)urea] | 1240 nM
7 | CC(NC(=O)N(O)c1ccc(S(=O)(=O)Nc2ccc3c(c2)CNC3)cc1)c1ccccc1 (stereo not shown) [H1199, 4-(1-hydroxy-3-(1-phenylethyl)ureido)-N-(isoindolin-5-yl)benzenesulfonamide] | 75.7 nM
8 | C[C@H](NC(=O)Nc1ccc(S(=O)(=O)CC2CCN(C)CC2)cc1)c1ccccc1 [H1238, (S)-1-(4-(((1-methylpiperidin-4-yl)methyl)sulfonyl)phenyl)-3-(1-phenylethyl)urea] | > 30000 nM
9 | O=C(NCc1cscn1)Nc1ccc(S(=O)(=O)Cc2ccc3c(c2)CNC3)cc1 [H1216, 1-(4-((isoindolin-5-ylmethyl)sulfonyl)phenyl)-3-(thiazol-4-ylmethyl)urea] | 8450 nM
10 | C[C@H](NC(=O)N(O)c1ccc(S(=O)(=O)Nc2ccc3c(c2)CNC3)cc1)c1cccc(Cl)c1Cl [H1188, (S)-4-(3-(1-(2,3-dichlorophenyl)ethyl)-1-hydroxyureido)-N-(isoindolin-5-yl)benzenesulfonamide] | 539 nM

Second part, the molecule after the results:

Row | IC50 | SMILES
11 | 3500 nM | C[C@H](NC(=O)Nc1ccc(S(=O)(=O)Cc2cccc(O)c2)cc1)c1cccc(Cl)c1Cl [H1084, (S)-1-(1-(2,3-dichlorophenyl)ethyl)-3-(4-((3-hydroxybenzyl)sulfonyl)phenyl)urea]
12 | 20800 nM | COc1ccc([C@H](C)NC(=O)Nc2ccc(S(=O)(=O)Nc3ccccc3)cc2)c(Cl)c1Cl [H0950, (S)-4-(3-(1-(2,3-dichloro-4-methoxyphenyl)ethyl)ureido)-N-phenylbenzenesulfonamide]
13 | 2740 nM | C[C@H](NC(=O)Nc1ccc(S(=O)(=O)Cc2ccc3c(c2)NCC3)cc1)c1cccc(Cl)c1Cl [H1045, (S)-1-(1-(2,3-dichlorophenyl)ethyl)-3-(4-((indolin-6-ylmethyl)sulfonyl)phenyl)urea]
14 | 467 nM | C[C@H](NC(=O)Nc1ccc(S(=O)(=O)NCCC2CCNCC2)cc1)c1cccc(Cl)c1Cl [H1052, (S)-4-(3-(1-(2,3-dichlorophenyl)ethyl)ureido)-N-(2-(piperidin-4-yl)ethyl)benzenesulfonamide]
15 | 9.5 nM | CN(C)C(C)(C)Cc1ccc(CS(=O)(=O)c2ccc(NC(=O)NCc3cccc(Cl)c3Cl)cc2)cc1 [H0981, 1-(2,3-dichlorobenzyl)-3-(4-((4-(2-(dimethylamino)-2-methylpropyl)benzyl)sulfonyl)phenyl)urea]
16 | 5290 nM | C[C@H](NC(=O)Nc1ccc(S(=O)(=O)Cc2ccc(-c3cccnc3)cc2)cc1)c1cccc(Cl)c1Cl [H1070, (S)-1-(1-(2,3-dichlorophenyl)ethyl)-3-(4-((4-(pyridin-3-yl)benzyl)sulfonyl)phenyl)urea]
